Values quoted from earlier work as cited in US20240382574A1, “METHODS AND COMPOSITIONS FOR ORALLY DOSING ANIMALS” (Animal Science Products, Inc., priority 2023, published 2024).

Tested on: piglets
Conditions: previous research

Compound	attraction of piglets
3-methylindole (skatole)	piglets are attracted to these molecules
CCCCCCCCCCCCCC(=O)O [myristic acid, tetradecanoic acid (myristic acid)]	piglets are attracted to these molecules
